Settings: 303.16 K, Liquid, Vibrating tube method

CCCCCCCCCC [decane]
Settings | mass density [kg/m3]
20929 kPa | 738
20946 kPa | 738.2
20968 kPa | 738.1
20994 kPa | 738
21014 kPa | 738.1
21034 kPa | 738.1
21060 kPa | 738.2
21084 kPa | 738.1
21107 kPa | 738.2
21124 kPa | 738.2
21151 kPa | 738.1
21174 kPa | 738.2
21191 kPa | 738.2
21209 kPa | 738.2
21226 kPa | 738.3
21243 kPa | 738.2
21267 kPa | 738.4
21293 kPa | 738.3
21314 kPa | 738.3
21341 kPa | 738.3
21358 kPa | 738.4
21382 kPa | 738.3
21403 kPa | 738.3
21424 kPa | 738.5
21448 kPa | 738.4
21469 kPa | 738.5
21490 kPa | 738.4
21514 kPa | 738.4
21538 kPa | 738.4
21560 kPa | 738.6
21579 kPa | 738.5
21600 kPa | 738.5
21622 kPa | 738.5
21641 kPa | 738.5
21662 kPa | 738.6
21686 kPa | 738.6
21708 kPa | 738.7
21730 kPa | 738.6
21745 kPa | 738.7
21779 kPa | 738.7
21805 kPa | 738.6
21827 kPa | 738.7
21847 kPa | 738.7
21869 kPa | 738.6
21891 kPa | 738.7
21916 kPa | 738.7
21938 kPa | 738.8
21962 kPa | 738.8
21987 kPa | 738.7
22006 kPa | 738.8
22029 kPa | 738.9
22057 kPa | 738.8
22086 kPa | 738.8
22108 kPa | 738.7
22127 kPa | 738.9
22153 kPa | 738.8
22178 kPa | 738.9
22201 kPa | 738.8
22224 kPa | 739
22246 kPa | 738.9
22269 kPa | 738.9
22291 kPa | 739.1
22314 kPa | 739
22333 kPa | 738.9
22360 kPa | 739
22380 kPa | 739
22410 kPa | 739
22436 kPa | 739
22463 kPa | 739.1
22489 kPa | 739.1
22516 kPa | 739
22542 kPa | 739.1
22565 kPa | 739.1
22589 kPa | 739.2
22619 kPa | 739.2
22647 kPa | 739.2
22666 kPa | 739.2
22696 kPa | 739.3
22723 kPa | 739.2
22750 kPa | 739.3
22773 kPa | 739.3
22801 kPa | 739.4
22825 kPa | 739.3
22846 kPa | 739.3
22870 kPa | 739.4
22897 kPa | 739.3
22918 kPa | 739.3
22950 kPa | 739.5
22971 kPa | 739.4
22996 kPa | 739.5
23013 kPa | 739.5
23041 kPa | 739.4
23062 kPa | 739.5
23097 kPa | 739.5
23124 kPa | 739.5
23149 kPa | 739.6
23174 kPa | 739.6
23202 kPa | 739.6
23224 kPa | 739.6
23257 kPa | 739.7
23285 kPa | 739.6
23310 kPa | 739.6
23339 kPa | 739.7
23360 kPa | 739.7
23385 kPa | 739.6
23411 kPa | 739.7
23437 kPa | 739.8
23466 kPa | 739.7
23495 kPa | 739.8
23526 kPa | 739.7
23549 kPa | 739.7
23575 kPa | 739.9
23600 kPa | 739.8
23630 kPa | 739.9
23652 kPa | 739.9
23682 kPa | 739.9
23705 kPa | 739.9
23735 kPa | 739.9
23761 kPa | 740
23784 kPa | 739.9
23813 kPa | 739.9
23845 kPa | 740.1
23872 kPa | 740
23902 kPa | 740.1
23933 kPa | 740.1
23968 kPa | 740.1
23991 kPa | 740.1
24021 kPa | 740.2
24048 kPa | 740.2
24083 kPa | 740.1
24102 kPa | 740.1
24133 kPa | 740.2
24165 kPa | 740.2
24200 kPa | 740.3
24235 kPa | 740.3
24255 kPa | 740.2
24282 kPa | 740.4

Reference: the NIST ThermoML archive (doi:10.1021/je800110r)
